Consider three compounds from patent publication US20120121554A1, “HMG-COA SECONDARY METABOLITES AND USES THEREOF” (EDENSPACE SYSTEMS CORPORATION, priority 2009, published 2012).

One experiment deals with T1, HMG-CoA reductase (Rattus norvegicus, UniProt P51639).
T1 sequence (P51639 1-887): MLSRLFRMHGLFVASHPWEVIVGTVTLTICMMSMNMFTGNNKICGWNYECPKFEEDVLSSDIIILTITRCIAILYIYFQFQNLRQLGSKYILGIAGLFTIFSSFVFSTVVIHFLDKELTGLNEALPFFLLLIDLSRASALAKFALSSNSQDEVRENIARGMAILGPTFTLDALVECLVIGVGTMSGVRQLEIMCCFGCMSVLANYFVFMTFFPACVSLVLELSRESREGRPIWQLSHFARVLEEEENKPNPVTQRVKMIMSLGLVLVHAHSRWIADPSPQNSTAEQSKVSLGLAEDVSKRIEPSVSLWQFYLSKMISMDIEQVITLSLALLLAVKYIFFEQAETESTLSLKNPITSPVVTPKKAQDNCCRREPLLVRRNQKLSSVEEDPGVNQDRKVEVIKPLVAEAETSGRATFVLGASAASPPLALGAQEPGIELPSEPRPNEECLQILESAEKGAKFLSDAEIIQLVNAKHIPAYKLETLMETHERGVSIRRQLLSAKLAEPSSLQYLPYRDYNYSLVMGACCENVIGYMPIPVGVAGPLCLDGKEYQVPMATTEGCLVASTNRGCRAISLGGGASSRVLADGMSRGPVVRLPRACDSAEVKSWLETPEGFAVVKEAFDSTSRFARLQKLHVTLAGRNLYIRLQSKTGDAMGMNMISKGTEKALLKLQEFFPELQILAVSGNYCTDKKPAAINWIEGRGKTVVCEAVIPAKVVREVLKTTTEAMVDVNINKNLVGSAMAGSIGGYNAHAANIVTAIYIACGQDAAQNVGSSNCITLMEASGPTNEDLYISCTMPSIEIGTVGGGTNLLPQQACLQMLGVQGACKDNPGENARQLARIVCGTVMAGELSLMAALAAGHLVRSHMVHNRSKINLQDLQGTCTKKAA
To be noted: compound at 10^−3 M; cited from earlier work.

Experiment [1] deals with Experimental autoimmune encephalomyelitis (EAE) in SJL/J mice. The experiment in a line: EAE mouse model, clinical assessment (day of onset). In kind it is in vivo. As to the method:
To induce EAE, five-to-seven week old SJL/J (H-2S) female mice (Charles River; Wilmington, Mass.) were immunized subcutaneously with 200 μg PLP139-151 in a 0.2 mL emulsion comprised of equal volumes of phosphate-buffered saline (PBS) and complete Freund's adjuvant (CFA) containing killed Mycobacterium Tuberculosis strain H37RA (at a final concentration of 4 mg/ml, Difco, Detroit, Mich.). PLP139-151/CFA was administered to regions above the shoulder and the flanks (4 sites total; 50 μL at each injection site). In addition, 200 ng of pertussis toxin (List Biological Laboratories, Campbell, Calif.) was injected intraperitoneally on the day of immunization and 2 days post immunization.
Mice received intravenous injections of vehicle (PBS), HMG (25 μmol/mouse), or PLP-BPI (100 nmol/mouse) on days 4, 7, and 10 (n=6 per treatment group).

Experiment [2] deals with serum cytokines and chemokines. The experiment in a line: Serum cytokine and chemokine levels in EAE mice (multiplex ELISA array). The format is in vivo, mouse. As to the method:
FIG. 7 depicts serum levels of cytokines and chemokines in various treatment groups (PBS only control, PLP-BPI-treated, and HMG-treated) 14 days after immunization with PLP139-151/CFA to induce EAE. Data represent the mean±standard deviation. Statistical significance was determined by one way Analysis of Variance followed by post-hoc testing using the Tukey test.
Blood samples were collected from the facial vein in PBS-, HMG-, and PLP-BPI-treated mice on day 14 and day 28 (n=3 per group). Blood samples were allowed to clot overnight at 2-8° C. before centrifuging for 10 min at 2000×g. Serum was removed and stored at −80° C. until measurement of cytokines and chemokines was performed by a commercial analytical services laboratory.
The levels of key cytokines and chemokines were measured by multiplex ELISA array by a commercial analytical laboratory.
In general terms: In an ELISA, binding on a coated surface is turned into a signal by an enzyme label.

Regarding `CCCCCCCCCCCCCCCC(O)(CC(=O)O)CC(=O)O` [3j], the “in vitro inhibition of HMGR @10^−3 M” value on HMG-CoA reductase is 99.

For the compound `CCCCCCCCCCCCCCCCCCCC(O)(CC(=O)O)CC(=O)O` [3m], the “in vitro inhibition of HMGR @10^−3 M” value at HMG-CoA reductase is given as 86.

As to `CC(O)(CC(=O)O)CC(=O)O` [HMG, 3-hydroxy-3-methylglutaric acid], in experiment [1] (EAE mice, i.v. on days 4, 7, 10), the “Disease phenotype as compared to vehicle only” value was “ameliorated disease phenotype”. Further, in experiment [1] (SJL/J mice, HMG 25 μmol/mouse i.v. on days 4, 7, 10), the “Delay of average day of onset of EAE as compared to PBS treated mice” value is on record as “about 2 days”. For the same compound, the “Day of onset of EAE (day when EAE clinical score is one or more)” value in experiment [1] (SJL/J mice, i.v. on days 4, 7, 10, HMG 25 μmol/mouse, PLP-BPI 100 nmol/mouse, PBS group day 11) stood at 13 days. Besides, the “Serum RANTES level” value in experiment [2] (day 14, compared to PBS group) was “statistically significant reductions”. Moreover, the “Serum IFN gamma concentration” value in experiment [2] (day 14, compared to PBS- or PLP-BPI-treated mice) was “much lower”. Also, in experiment [2] (day 14, compared to PLP-BPI-treated animals), the “Serum IL-17 level” value is recorded as “significantly lower”. Moreover, the “Inflammation as measured by levels of some cytokines” value in experiment [2] (day 14, versus PBS only) is listed as “reduced inflammation”. Besides, the “Serum IL-1 alpha level” value in experiment [2] (day 14 after immunization, compared to PBS group) was “statistically significant reductions”.
